10 compounds from ChEMBL document CHEMBL1143173, “2D Autocorrelation, CoMFA, and CoMSIA modeling of protein tyrosine kinases' inhibition by substituted pyrido[2,3-d]pyrimidine derivatives” (Bioorg Med Chem, 2008) can be followed below.

Test [1] can be described thus: Inhibition of FGFR.
In test [2] the target is Proto-oncogene tyrosine-protein kinase Src (Homo sapiens) (UniProt P12931). Kind of test: Inhibition of cSrc.
Test [3] can be described thus: Inhibition of PDGFR.

Proto-oncogene tyrosine-protein kinase Src (Homo sapiens), sequence (P12931 2-536 limits assumed): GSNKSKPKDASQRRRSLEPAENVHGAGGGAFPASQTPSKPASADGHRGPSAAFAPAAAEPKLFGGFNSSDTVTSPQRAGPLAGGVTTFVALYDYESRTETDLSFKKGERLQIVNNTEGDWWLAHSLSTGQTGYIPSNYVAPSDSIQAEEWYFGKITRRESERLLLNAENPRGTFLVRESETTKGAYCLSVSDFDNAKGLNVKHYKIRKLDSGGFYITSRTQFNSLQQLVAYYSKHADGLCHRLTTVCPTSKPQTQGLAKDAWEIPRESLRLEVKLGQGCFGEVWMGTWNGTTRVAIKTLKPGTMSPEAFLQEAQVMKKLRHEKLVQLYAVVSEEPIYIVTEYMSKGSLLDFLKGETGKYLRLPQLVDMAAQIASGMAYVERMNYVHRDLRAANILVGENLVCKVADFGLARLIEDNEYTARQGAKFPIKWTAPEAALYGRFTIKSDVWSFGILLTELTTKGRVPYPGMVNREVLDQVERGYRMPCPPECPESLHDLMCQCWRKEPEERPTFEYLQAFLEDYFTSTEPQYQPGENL

In the case of `CN(C)c1ncc2cc(-c3c(Cl)cccc3Cl)c(=O)n(C)c2n1`, the log(10^6/IC50) in test [1], in test [2] and in test [3] was 1.3 throughout.

`Cn1c(=O)c(-c2c(Cl)cccc2Cl)cc2cncnc21`: the log(10^6/IC50) in test [1] was 1.3; in test [2], 2; in test [3], 1.3.

With `CCOc1cc(OCC)cc(-c2cc3cnc(N)nc3nc2NC(=O)NC(C)(C)C)c1`, the values for the log(10^6/IC50) in test [1], in test [2] and in test [3] were 2.78, 1.3 and 1.3, respectively.

For the compound `CC(C)(C)NC(=O)Nc1nc2nc(N)ncc2cc1-c1cc(C(F)(F)F)cc(C(F)(F)F)c1`, the log(10^6/IC50) in test [1], in test [2] and in test [3] was 1.3 each time.

`COc1ccc(NC(=O)Nc2nc3nc(NCCCN4CCN(C)CC4)ncc3cc2-c2c(Cl)cccc2Cl)cc1`: the log(10^6/IC50) in test [2] came out at 4.55.

Regarding `CN1CCN(c2ccc(Nc3ncc4cc(-c5c(Cl)cccc5Cl)c(=O)n(C)c4n3)cc2)CC1`, the log(10^6/IC50) in test [1] is 4.29; in test [2], 5; in test [3] it was 3.94.

On to `Cc1ncc2cc(-c3c(Cl)cccc3Cl)c(=O)n(C)c2n1`, for which the log(10^6/IC50) in test [1], in test [2] and in test [3] was 1.3 in each case.

Turning to `CN(C)c1cc(-c2cc3cnc(N)nc3nc2NC(=O)NC(C)(C)C)cc(N(C)C)c1`, the log(10^6/IC50) was determined as 1.8 in test [1], 1.3 in test [2] and 1.3 in test [3].

Regarding `COc1cc(OC)cc(-c2cc3cnc(N)nc3n(C)c2=O)c1`, the log(10^6/IC50) came to 3.9 in test [1], 1.3 in test [2] and 1.37 in test [3].

For the compound `Cn1c(=O)c(-c2c(Cl)cccc2Cl)cc2cnc(Nc3ccc(CC(=O)O)cc3)nc21`, the log(10^6/IC50) is 4.21 in test [1], 5 in test [2] and 4.15 in test [3].
